According to patent US20130309187A1, “SKIN-WHITENING AGENT CONTAINING 3-HYDROXY-2-PYRONE” (NICHIREI BIOSCIENCES INC., priority 2011, published 2013):

What was measured:
[1] = tested on: B16 mouse melanoma 4A5 cells; test: Inhibition of melanin production in B16 mouse melanoma 4A5 cells; type: cell-based; conditions: for Melanin level: 5 days culture with sample, relative to control designated as 100
Method: (§1) B16 mouse melanoma 4A5 cells (RIKEN) were seeded at 5.0 x 10^4 cells/well on a 6-well plate and cultured in Dulbecco's modified Eagle's medium (DMEM) supplemented with 10% FBS at 37° C. in the presence of 5% CO2. The medium was exchanged with fresh medium supplemented with the sample on the following day, and culture was conducted in the medium supplemented with the sample for an additional 5 days. The medium was removed 6 days after the initiation of culture, and the cells were collected by using trypsin. The collected cells were suspended in 1N sodium hydroxide, and melanin was extracted via heating. The absorbance of the melanin extract was measured at 405 nm, and the melanin level was quantified with the calibration curve of the melanin reagent (Sigma). In addition, the amount of proteins in the collected cells was determined using the DC Protein Assay KIT (BIO-RAD) and used as the indicator for the viable cell count.
as §1, with “5.0×10^4” for “5.0 x 10^4”

[2] = tested on: B16 mouse melanoma 4A5 cells; test: Viable cell count (protein amount, DC Protein Assay) in B16 mouse melanoma 4A5 cells
Method: as §1
as §1, with “5.0×10^4” for “5.0 x 10^4”

[3] = tested on: tyrosinase (Sigma); test: Inhibition rate of tyrosinase activity (L-DOPA substrate, absorbance 475 nm); type: biochemical
Method: In the experiment, 0.2 ml of an enzyme solution containing 72 units/ml tyrosinase (Sigma) was mixed with 1.0 ml of a substrate mixture (i.e., a 2:2:1 mixture of a 6 mM L-DOPA solution, the test composition with the adjusted concentration (hereafter referred to as the “sample”), and phosphate buffer), the absorbance was measured at 475 nm at 37° C. at 0 min and […], and the inhibition rate of tyrosinase activity was determined using the equation shown below.
Inhibition rate of tyrosinase activity (%)=(1−(the difference in the absorbance of the sample between […] and 3 min)/(the difference in the absorbance of the blank between 0 min and 3 min)×100
(§2) In the experiment, 0.2 ml of an enzyme solution containing 72 units/ml tyrosinase (Sigma) was mixed with 1.0 ml of a substrate mixture (i.e., a 2:2:1 mixture of a 6 mM L-DOPA solution, the sample with the adjusted concentration, and phosphate buffer (pH 6.8)), the absorbance was measured at 475 nm at 37° C. at 0 min and 3 min, and the inhibition rate of tyrosinase activity was determined using the equation shown below.
Inhibition rate of tyrosinase activity (%)=(1−(the difference in the absorbance of the sample between 0 min and 3 min)/(the difference in the absorbance of the blank between 0 min and 3 min)×100
as §2, with “buffer),” for “buffer (pH 6.8)),”

[4] = tested on: tyrosinase; test: Inhibitory effects on tyrosinase activity (L-tyrosine substrate, time course of absorbance at 475 nm, method of Patent Document 1); type: biochemical; conditions: Experiment 4, FIG. 3, aqueous solution of 1% sample, 0-15 min
Method: The experiment was carried out in the same manner as that described in Patent Document 1. An aqueous solution of 1% 3H2P, an aqueous solution of 1% coumalin (Tokyo Chemical Industry Co., Ltd.), an aqueous solution of 1% coumalic acid (Tokyo Chemical Industry Co., Ltd.), and an aqueous solution of 0.01% kojic acid were prepared. Subsequently, 1.45 ml of a substrate-sample mixture comprising an aqueous solution of L-tyrosine (0.3 mg/ml), a sample solution of 3H2P, etc., and McIlvaine buffer (pH 6.8) was introduced into a test tube, 0.05 ml of a tyrosinase solution (1 mg/ml) was added thereto, the resultant was mounted on a spectrophotometer capable of maintaining a constant temperature of 37° C., and the absorbance was measured at 475 nm with the elapse of time (once every minute between 0 min and 15 min).

[5] = Experiment 7, FIG. 6, 3H4P, 3H2P and kojic acid compared
[6] = Experiment 6, FIG. 5, kojic acid, 3H2P and 3H4P compared
[7] = Experiment 3, 1 μg/ml, relative to control designated as 100
[8] = Experiment 3, 5 μg/ml, relative to control designated as 100
[9] = Experiment 3, 10 μg/ml, relative to control designated as 100

Structure (SMILES)	inhibitory effects on melanin production [1, 5]	Melanin level ([1]; Experiment 7, 50 μg/ml)	Melanin level ([1]; Experiment 7, 100 μg/ml)	inhibitory effects on tyrosinase activity [3, 6]	Melanin level ([1]; Experiment 3, 1 μg/ml)	Melanin level ([1]; Experiment 3, 5 μg/ml)	Melanin level ([1]; Experiment 3, 10 μg/ml)	Cell count [2, 7]	Cell count [2, 8]	Cell count [2, 9]	inhibitory effects on tyrosinase activity [4]	other results
O=c1ccocc1O [3H4P, 3-Hydroxy-4-pyrone]	equivalent to those of kojic acid	88.8	50.9	–	–	–	–	–	–	–	–	Cell count ([2]; mouse, 5 days, 50 μg/ml): 89.7; Cell count ([2]; mouse, 5 days, 100 μg/ml): 84.4
O=c1occcc1O [3H2P, 3-hydroxy-2-pyrone]	stronger inhibitory effects on melanin production than such γ-pyrone compounds	–	–	equivalent to those of 3H4P	71.7	34.3	20.7	92.2	81.9	72.4	significantly stronger than those of coumalin and coumalic acid	inhibitory effects on tyrosinase activity ([3]; Experiment 2, FIG. 1, compared with kojic acid and ascorbic acid): equivalent to those of ascorbic acid, although such effects are somewhat weaker than those of kojic acid; inhibitory effects on tyrosinase activity ([3]; Experiment 5, FIG. 4, final concentrations 0.3%, 0.1% and 0.033%): apparently stronger than those of coumalin and coumalic acid; inhibitory effects on melanin production ([1]; Experiment 3, FIG. 2, compared with arbutin and kojic acid): stronger than those of kojic acid and equivalent to those of arbutin; concentration at which inhibitory effects on melanin production are exerted ([1]; Experiment 3, 1 ppm = 1 μg/ml, 0.0001%): ≤ 1 ppm; Melanin level ([1]; Experiment 7, 1 μg/ml): 77.2; Melanin level ([1]; Experiment 7, 5 μg/ml): 42.7; Melanin level ([1]; Experiment 7, 10 μg/ml): 29.6; Cell count ([2]; Experiment 7, 1 μg/ml, relative to control designated as 100): 102.0; Cell count ([2]; Experiment 7, 5 μg/ml, relative to control designated as 100): 98.7; Cell count ([2]; Experiment 7, 10 μg/ml, relative to control designated as 100): 93.8
OC[C@H]1O[C@@H](Oc2ccc(O)cc2)[C@H](O)[C@@H](O)[C@@H]1O [Arbutin, arbutin]	–	–	–	–	82.4	43.0	23.9	96.2	91.7	86.0	–	–
O=c1cccco1 [coumalin]	–	–	–	–	–	–	–	–	–	–	insignificant levels of inhibitory effects	–
O=C(O)c1ccc(=O)oc1 [coumalic acid]	–	–	–	–	–	–	–	–	–	–	strong inhibitory effects	–
O=c1cc(CO)occ1O [Kojic acid, kojic acid]	–	85.6	65.3	strongest inhibitory effects on tyrosinase activity	–	–	–	–	–	–	–	Melanin level ([1]; Experiment 3, 50 μg/ml): 76.5; Melanin level ([1]; Experiment 3, 100 μg/ml): 65.7; Cell count ([2]; Experiment 3, 50 μg/ml, relative to control designated as 100): 80.2; Cell count ([2]; Experiment 3, 100 μg/ml, relative to control designated as 100): 74.1; Cell count ([2]; Experiment 7, 50 μg/ml, relative to control designated as 100): 80.2; Cell count ([2]; Experiment 7, 100 μg/ml, relative to control designated as 100): 74.1
